Laboratory results reported in PubChem BioAssay AID2060909 (Molecular Pharmacology Branch, DTP, NCI, 2025).

Tested on: 362531-283-R-J2-PDC complex spheroid viability
Assay: Anticancer human tumor 362531-283-R-J2-PDC patient-derived colon adenocarcinoma cell line growth inhibition [RAS]
Details: for IC50: curve of first compound; for viability, T/C: stronger effect = lower value
Procedure, shortened: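 Tumour cells grown as complex spheroids with HUVEC endothelial cells and mesenchymal stem cells, treated with RAS pathway inhibitor combinations. Each agent spans half-log steps from near clinical Cmax, or 10 microM where Cmax is unknown.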

[1] = second compound 0.000949 µM, first compound 0.0316 µM
[2] = second compound 0.000949 µM, first compound 0.1 µM
[3] = second compound 0.000949 µM, first compound 0.316 µM
[4] = second compound 0.000949 µM, first compound 1 µM
[5] = second compound 0.000949 µM, first compound 3.16 µM
[6] = second compound 0.000949 µM, first compound 10 µM
[7] = second compound 0.003 µM, first compound 0.0316 µM
[8] = second compound 0.003 µM, first compound 0.1 µM
[9] = second compound 0.003 µM, first compound 0.316 µM
[10] = second compound 0.003 µM, first compound 1 µM
[11] = second compound 0.003 µM, first compound 3.16 µM
[12] = second compound 0.003 µM, first compound 10 µM
[13] = second compound 0.00949 µM, first compound 0.0316 µM
[14] = second compound 0.00949 µM, first compound 0.1 µM
[15] = second compound 0.00949 µM, first compound 0.316 µM
[16] = second compound 0.00949 µM, first compound 1 µM
[17] = second compound 0.00949 µM, first compound 3.16 µM
[18] = second compound 0.00949 µM, first compound 10 µM
[19] = second compound 0.03 µM, first compound 0.0316 µM
[20] = second compound 0.03 µM, first compound 0.1 µM
[21] = second compound 0.03 µM, first compound 0.316 µM
[22] = second compound 0.03 µM, first compound 1 µM
[23] = second compound 0.03 µM, first compound 3.16 µM
[24] = second compound 0.03 µM, first compound 10 µM
[25] = second compound 0.0949 µM, first compound 0.0316 µM
[26] = second compound 0.0949 µM, first compound 0.1 µM
[27] = second compound 0.0949 µM, first compound 0.316 µM
[28] = second compound 0.0949 µM, first compound 1 µM
[29] = second compound 0.0949 µM, first compound 3.16 µM
[30] = second compound 0.0949 µM, first compound 10 µM
[31] = second compound 0.3 µM, first compound 0.0316 µM
[32] = second compound 0.3 µM, first compound 0.1 µM
[33] = second compound 0.3 µM, first compound 0.316 µM
[34] = second compound 0.3 µM, first compound 1 µM
[35] = second compound 0.3 µM, first compound 3.16 µM
[36] = second compound 0.3 µM, first compound 10 µM
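Further: spheroids exposed to the agents for 7 days before readout.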
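Wherever viability, T/C is given: luminescence viability as percent of DMSO vehicle control wells.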

CC(C)NCC(C(=O)N1CCN(c2ncnc3c2C(C)CC3O)CC1)c1ccc(Cl)cc1 (stereo unspecified) + CCn1c(-c2cc(N3CCN(C)CC3)cnc2C(C)OC)c2c3cc(ccc31)-c1csc(n1)CC(NC(=O)C1CC1C)C(=O)N1CCCC(N1)C(=O)OCC(C)(C)C2
IC50 (second compound 0.000949 µM): > 10000 nM
IC50 (second compound 0.003 µM): > 10000 nM
IC50 (second compound 0.00949 µM): > 10000 nM
IC50 (second compound 0.03 µM): > 10000 nM
IC50 (second compound 0.0949 µM): > 10000 nM
IC50 (second compound 0.3 µM): < 31.6 nM
viability, T/C [1]: 103%
viability, T/C [2]: 103%
viability, T/C [3]: 101%
viability, T/C [4]: 99.5%
viability, T/C [5]: 92.7%
viability, T/C [6]: 89.7%
viability, T/C [7]: 95.6%
viability, T/C [8]: 109%
viability, T/C [9]: 97.8%
viability, T/C [10]: 98.7%
viability, T/C [11]: 106%
viability, T/C [12]: 100%
viability, T/C [13]: 103%
viability, T/C [14]: 110%
viability, T/C [15]: 89.7%
viability, T/C [16]: 99%
viability, T/C [17]: 93.6%
viability, T/C [18]: 93.2%
viability, T/C [19]: 99.4%
viability, T/C [20]: 83.8%
viability, T/C [21]: 84.1%
viability, T/C [22]: 87.8%
viability, T/C [23]: 92.6%
viability, T/C [24]: 85.7%
viability, T/C [25]: 81.8%
viability, T/C [26]: 101%
viability, T/C [27]: 86.1%
viability, T/C [28]: 72.3%
viability, T/C [29]: 76.4%
viability, T/C [30]: 65.4%
viability, T/C [31]: 46.8%
viability, T/C [32]: 53.9%
viability, T/C [33]: 42.6%
viability, T/C [34]: 41.6%
viability, T/C [35]: 31%
viability, T/C [36]: 33.5%

CC(Nc1ccc2c(c1)OCCn1cc(N3C(=O)OCC3C(F)F)nc1-2)C(N)=O (stereo unspecified) + CCn1c(-c2cc(N3CCN(C)CC3)cnc2C(C)OC)c2c3cc(ccc31)-c1csc(n1)CC(NC(=O)C1CC1C)C(=O)N1CCCC(N1)C(=O)OCC(C)(C)C2
IC50 (second compound 0.000949 µM): 1290 nM
IC50 (second compound 0.003 µM): 1610 nM
IC50 (second compound 0.00949 µM): 952 nM
IC50 (second compound 0.03 µM): 849 nM
IC50 (second compound 0.0949 µM): 431 nM
IC50 (second compound 0.3 µM): < 31.6 nM
viability, T/C [1]: 98.7%
viability, T/C [2]: 107%
viability, T/C [3]: 86.6%
viability, T/C [4]: 58%
viability, T/C [5]: 26.4%
viability, T/C [6]: 27.9%
viability, T/C [7]: 103%
viability, T/C [8]: 98.8%
viability, T/C [9]: 93%
viability, T/C [10]: 59.5%
viability, T/C [11]: 36.7%
viability, T/C [12]: 27.5%
viability, T/C [13]: 96.8%
viability, T/C [14]: 105%
viability, T/C [15]: 64.9%
viability, T/C [16]: 56.2%
viability, T/C [17]: 32.4%
viability, T/C [18]: 32.3%
viability, T/C [19]: 97.2%
viability, T/C [20]: 89.6%
viability, T/C [21]: 70.7%
viability, T/C [22]: 45.8%
viability, T/C [23]: 38.7%
viability, T/C [24]: 34.9%
viability, T/C [25]: 88.6%
viability, T/C [26]: 73%
viability, T/C [27]: 51.9%
viability, T/C [28]: 41.7%
viability, T/C [29]: 32.5%
viability, T/C [30]: 29.4%
viability, T/C [31]: 32.6%
viability, T/C [32]: 28.3%
viability, T/C [33]: 11.2%
viability, T/C [34]: 3.11%
viability, T/C [35]: 3.38%
viability, T/C [36]: 3.53%

O=C(c1ccc(F)c(F)c1Nc1ccc(I)cc1F)N1CC(O)([C@@H]2CCCCN2)C1 + CCn1c(-c2cc(N3CCN(C)CC3)cnc2C(C)OC)c2c3cc(ccc31)-c1csc(n1)CC(NC(=O)C1CC1C)C(=O)N1CCCC(N1)C(=O)OCC(C)(C)C2
IC50 (second compound 0.000949 µM): 523 nM
IC50 (second compound 0.003 µM): 514 nM
IC50 (second compound 0.00949 µM): 454 nM
IC50 (second compound 0.03 µM): 447 nM
IC50 (second compound 0.0949 µM): 72 nM
IC50 (second compound 0.3 µM): < 3.16 nM
viability, T/C (second compound 0.000949 µM, first compound 0.00316 µM): 93%
viability, T/C (second compound 0.000949 µM, first compound 0.01 µM): 105%
viability, T/C [1]: 85.6%
viability, T/C [2]: 80.9%
viability, T/C [3]: 74.8%
viability, T/C [4]: 23.1%
viability, T/C (second compound 0.003 µM, first compound 0.00316 µM): 87.8%
viability, T/C (second compound 0.003 µM, first compound 0.01 µM): 101%
viability, T/C [7]: 92%
viability, T/C [8]: 76.4%
viability, T/C [9]: 76%
viability, T/C [10]: 20.3%
viability, T/C (second compound 0.00949 µM, first compound 0.00316 µM): 98.4%
viability, T/C (second compound 0.00949 µM, first compound 0.01 µM): 94.7%
viability, T/C [13]: 81.4%
viability, T/C [14]: 82.6%
viability, T/C [15]: 73.6%
viability, T/C [16]: 4.71%
viability, T/C (second compound 0.03 µM, first compound 0.00316 µM): 87.4%
viability, T/C (second compound 0.03 µM, first compound 0.01 µM): 75.7%
viability, T/C [19]: 82%
viability, T/C [20]: 75.4%
viability, T/C [21]: 69.1%
viability, T/C [22]: 5.79%
viability, T/C (second compound 0.0949 µM, first compound 0.00316 µM): 72.8%
viability, T/C (second compound 0.0949 µM, first compound 0.01 µM): 96.2%
viability, T/C [25]: 58.1%
viability, T/C [26]: 49.3%
viability, T/C [27]: 3.89%
viability, T/C [28]: 3.06%
viability, T/C (second compound 0.3 µM, first compound 0.00316 µM): 28.9%
viability, T/C (second compound 0.3 µM, first compound 0.01 µM): 28.4%
viability, T/C [31]: 15.1%
viability, T/C [32]: 3.3%
viability, T/C [33]: 3.48%
viability, T/C [34]: 3.15%
